According to the supplement of paper PMC10307832:

Key:
Assay in all cases: relative viability (nuclei count vs DMSO), 5 days (fraction); higher = more cells survive
IU1-47 + Luminespib = compound: CC1=CC(=C(N1C2=CC=C(C=C2)Cl)C)C(=O)CN3CCCCC3 [IU1-47] + CCNC(=O)c1noc(-c2cc(C(C)C)c(O)cc2O)c1-c1ccc(CN2CCOCC2)cc1 [Luminespib] (partner 0.01 µM)
Procedure, shortened: (§1)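 A single step with final 0.05% Triton X-100, 1% formaldehyde and 1 ug/ml Hoechst fixed the cells and stained nuclei 5 days after treatment. Lung cancer cell lines in 1536-well plates had been treated by pin tool the day after seeding with one drug alone or a fixed anchor-drug dose plus five library-drug doses (not always all listed) in √10 steps, and nuclei were counted on 4× images. Relative viability is the ratio of nuclei in treated wells to nuclei in vehicle wells, taken as the median of duplicate plates.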

FG-4592 + Pictilisib = compound: Cc1nc(C(=O)NCC(=O)O)c(O)c2ccc(Oc3ccccc3)cc12 [FG-4592] + CS(=O)(=O)N1CCN(Cc2cc3nc(-c4cccc5[nH]ncc45)nc(N4CCOCC4)c3s2)CC1 [Pictilisib] (partner 1 µM)
Procedure, shortened: as §1

FG-4592 + AZD7762 = compound: Cc1nc(C(=O)NCC(=O)O)c(O)c2ccc(Oc3ccccc3)cc12 [FG-4592] + NC(=O)Nc1cc(-c2cccc(F)c2)sc1C(=O)N[C@H]1CCCNC1 [AZD7762] (partner 0.2 µM)
Procedure, shortened: as §1

IU1-47 + Olaparib = compound: CC1=CC(=C(N1C2=CC=C(C=C2)Cl)C)C(=O)CN3CCCCC3 [IU1-47] + O=C(c1cc(Cc2n[nH]c(=O)c3ccccc23)ccc1F)N1CCN(C(=O)C2CC2)CC1 [Olaparib] (partner 8 µM)
Procedure, shortened: as §1

| Cell Line | relative viability (IU1-47 + Luminespib; first compound 0.08 µM) | relative viability (IU1-47 + Luminespib; first compound 0.253 µM) | relative viability (IU1-47 + Luminespib; first compound 0.8 µM) | relative viability (IU1-47 + Luminespib; first compound 8 µM) | relative viability (FG-4592 + Pictilisib; first compound 0.08 µM) | relative viability (FG-4592 + Pictilisib; first compound 0.253 µM) | relative viability (FG-4592 + Pictilisib; first compound 0.8 µM) | relative viability (FG-4592 + Pictilisib; first compound 2.53 µM) | relative viability (FG-4592 + Pictilisib; first compound 8 µM) | relative viability (FG-4592 + AZD7762; first compound 0.08 µM) | relative viability (FG-4592 + AZD7762; first compound 0.253 µM) | relative viability (FG-4592 + AZD7762; first compound 0.8 µM) | relative viability (FG-4592 + AZD7762; first compound 2.53 µM) | relative viability (FG-4592 + AZD7762; first compound 8 µM) | relative viability (IU1-47 + Olaparib; first compound 0.08 µM) | relative viability (IU1-47 + Olaparib; first compound 0.253 µM) | relative viability (IU1-47 + Olaparib; first compound 0.8 µM) | relative viability (IU1-47 + Olaparib; first compound 2.53 µM) | relative viability (IU1-47 + Olaparib; first compound 8 µM) | relative viability (IU1-47 + Luminespib; first compound 2.53 µM) |
| --- | --- | --- | --- | --- | --- | --- | --- | --- | --- | --- | --- | --- | --- | --- | --- | --- | --- | --- | --- | --- |
| NCI-H1734 | 0.181 | 0.202 | 0.18 | 0.215 | 0.417 | 0.47 | 0.405 | 0.482 | 0.491 | 0.63 | 0.474 | 0.456 | 0.547 | 0.427 | 0.669 | 0.75 | 0.631 | 0.608 | 0.656 |  |
| NCI-H2126 | 0.928 | 0.975 | 0.949 | 0.899 | 0.487 | 0.483 | 0.449 | 0.511 | 0.531 | 1.04 | 0.951 | 0.918 | 1.06 | 1.01 | 0.972 | 0.945 | 0.89 | 0.898 | 0.762 |  |
| EMC-BAC-2 | 1.4 | 1.32 | 1.28 | 0.93 | 0.439 | 0.476 | 0.396 | 0.564 | 0.445 | 1.17 | 0.903 | 0.901 | 1.08 | 1 | 0.507 | 0.548 | 0.402 | 0.534 | 0.533 | 1.26 |
| NCI-H1993 | 0.857 | 0.888 | 0.804 | 0.716 | 0.834 | 0.774 | 0.854 | 0.851 | 0.66 | 0.769 | 0.723 |  | 0.892 | 0.56 | 1.22 | 1.01 | 1.08 | 1.08 | 1.14 | 0.868 |
| NCI-H647 | 0.409 | 0.276 | 0.125 | 0.176 |  | 0.395 |  | 0.452 | 0.53 | 0.431 | 0.429 | 0.367 | 0.422 | 0.532 | 0.661 | 0.755 | 0.556 | 0.783 | 0.333 | 0.221 |
| NCI-H1792 | 0.573 | 0.358 | 0.515 | 0.568 | 0.296 | 0.248 | 0.279 | 0.246 | 0.318 | 0.81 | 0.637 |  | 0.834 | 0.654 | 0.659 | 0.481 | 0.365 | 0.384 | 0.215 | 0.308 |
| ChaGo-K-1 | 0.623 | 0.618 | 0.713 | 0.703 | 0.769 | 0.714 | 0.452 | 0.791 | 0.544 | 0.846 | 0.888 | 0.856 | 0.93 | 0.66 | 0.433 | 0.393 | 0.435 | 0.452 | 0.362 | 0.671 |
| LOU-NH91 | 0.326 | 0.299 | 0.294 | 0.336 | 0.456 | 0.51 | 0.509 | 0.545 | 0.554 | 0.755 | 0.733 | 0.717 | 0.723 | 0.732 | 1.02 | 0.995 | 0.877 | 0.966 | 0.886 | 0.276 |
| NCI-H2405 | 0.77 | 0.824 | 0.739 | 0.804 |  | 0.266 | 0.348 | 0.419 | 0.427 | 0.659 | 0.642 | 0.756 | 0.649 | 0.592 | 0.876 | 0.871 | 0.956 | 0.91 | 0.945 | 0.694 |
| LCLC-97TM1 | 0.846 | 0.757 | 0.834 | 0.787 | 0.22 | 0.192 | 0.138 |  | 0.169 | 0.255 | 0.173 | 0.274 | 0.132 | 0.315 | 0.44 | 0.461 | 0.352 |  | 0.21 | 0.716 |
| NCI-H596 | 0.926 | 1.05 | 1 | 0.752 | 0.337 | 0.359 |  | 0.377 | 0.433 | 1.1 | 1.08 |  | 1.15 | 0.952 | 0.676 |  | 0.754 | 0.718 | 0.632 | 1.12 |
| NCI-H727 | 0.356 | 0.241 | 0.803 | 0.293 | 0.311 | 0.274 | 0.307 | 0.335 | 0.452 | 0.51 | 0.555 | 0.763 | 0.563 | 0.482 | 0.661 | 0.729 | 0.691 | 0.64 | 0.66 | 0.365 |
| H3255 | 1.09 | 1 | 0.757 | 0.888 | 0.396 | 0.472 | 0.51 | 0.44 | 0.5 | 0.902 | 0.802 | 0.995 | 0.754 | 0.831 | 0.64 | 0.609 | 0.569 | 0.54 | 0.561 | 0.41 |
| NCI-H1437 | 1.2 | 1.1 | 1.21 | 1.1 | 0.447 | 0.437 | 0.337 | 0.37 | 0.269 | 1.19 | 1.08 | 1.17 | 0.995 | 1.08 | 0.623 | 0.615 | 0.618 | 0.633 | 0.549 | 1.11 |
| LU99A | 0.32 | 0.182 | 0.273 | 0.259 | 0.311 | 0.28 | 0.291 | 0.316 | 0.339 | 0.37 | 0.387 |  | 0.381 | 0.346 | 0.233 | 0.273 | 0.272 | 0.265 | 0.245 | 0.302 |
| HCC-827 | 0.819 | 0.588 | 0.818 | 0.648 | 1.05 | 1.04 | 1.07 | 0.875 | 0.834 | 0.23 | 0.173 | 0.326 | 0.184 | 0.22 | 0.617 | 0.694 | 0.631 | 0.683 | 0.648 | 0.573 |
| LK-2 | 0.235 | 0.165 | 0.175 | 0.17 |  | 0.638 |  | 0.64 | 0.475 | 0.273 | 0.355 |  | 0.358 | 0.342 | 0.935 | 0.958 | 0.802 | 0.745 | 0.641 | 0.213 |
